Usually EC50 stands for the concentration giving half of the maximal effect. For orientation: IC50 means the midpoint of a concentration-inhibition curve.

Calls of active or inactive are those of the source.

Experiment [1] is described as follows: A Cell Based Secondary Assay To Explore Cytotoxicity of Compounds that Sensitize Mycobacterium Tuberculosis to Beta-Lactam Antibiotics. The class given is functional.
In experiment [2] the target is T1, Alkaline phosphatase, tissue-nonspecific isozyme (Homo sapiens, UniProt P05186).
T1 sequence (P05186 whole entry): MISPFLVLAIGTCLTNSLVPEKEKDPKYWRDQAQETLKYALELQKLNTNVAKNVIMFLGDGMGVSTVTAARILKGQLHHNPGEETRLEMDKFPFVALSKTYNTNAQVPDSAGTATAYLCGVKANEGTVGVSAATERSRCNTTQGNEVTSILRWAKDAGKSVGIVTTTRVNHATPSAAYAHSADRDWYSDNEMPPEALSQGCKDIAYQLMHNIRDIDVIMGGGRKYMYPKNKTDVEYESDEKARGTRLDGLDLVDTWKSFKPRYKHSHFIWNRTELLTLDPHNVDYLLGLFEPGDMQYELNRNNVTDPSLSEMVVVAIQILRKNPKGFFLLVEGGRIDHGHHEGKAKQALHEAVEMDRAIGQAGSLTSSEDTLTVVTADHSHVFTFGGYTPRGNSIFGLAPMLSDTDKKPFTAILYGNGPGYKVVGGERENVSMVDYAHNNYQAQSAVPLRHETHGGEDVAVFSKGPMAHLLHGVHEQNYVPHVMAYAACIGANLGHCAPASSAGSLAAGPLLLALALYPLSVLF

A short description of experiment [3]: HepG2 cell cytotoxicity, dose response, cytotoxicity control for Shn3 inhibitor project, CellTiter-Glo, cherry-picked (AID 624134). It is filed as functional, cell-based. A general note: ATP-based viability assays read luminescence as a measure of living cells.
A further experiment addresses Ion channel NompC (Danio rerio, UniProt Q7T1G6). The experiment in a line: Fluorescence counterscreen assay for TRPML3 agonists: dose response cell-based high-throughput screening assay to identify agonists of the transient receptor potential channel N1 (TRPN1). [Related pubchem assays: 1526, 1424, 1448 ]. It is filed as functional. (In general: A counterscreen serves to expose hits that act by an unwanted route or on another target.)

The target in the next experiment is T2, Mucolipin-3 (Homo sapiens, UniProt Q8TDD5).
T2 sequence (Q8TDD5 whole entry): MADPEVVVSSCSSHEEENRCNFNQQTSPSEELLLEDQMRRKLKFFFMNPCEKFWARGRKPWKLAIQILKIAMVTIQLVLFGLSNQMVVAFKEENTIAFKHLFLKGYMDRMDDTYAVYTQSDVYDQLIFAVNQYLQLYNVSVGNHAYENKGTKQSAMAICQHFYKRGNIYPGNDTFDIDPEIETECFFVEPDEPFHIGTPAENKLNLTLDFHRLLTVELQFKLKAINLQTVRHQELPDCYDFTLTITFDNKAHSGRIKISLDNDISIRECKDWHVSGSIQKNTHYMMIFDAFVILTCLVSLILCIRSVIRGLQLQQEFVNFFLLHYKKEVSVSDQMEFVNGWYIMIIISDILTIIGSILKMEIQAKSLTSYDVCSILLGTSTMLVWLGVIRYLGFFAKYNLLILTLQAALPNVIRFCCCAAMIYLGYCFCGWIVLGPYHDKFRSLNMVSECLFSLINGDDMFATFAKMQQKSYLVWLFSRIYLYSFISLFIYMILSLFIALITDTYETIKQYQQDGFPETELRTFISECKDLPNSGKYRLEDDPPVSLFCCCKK
The experiment in a line: Dose response cell-based high-throughput screening assay for agonists of the transient receptor potential channel ML3 (TRPML3). [Related pubchem assays: 1526, 1424, 1448 ]. The class given is functional.

Experiment [4] is described as follows: control 3'UTR Renilla luciferase suppression, dose response, counter-screen for Shn3 inhibitor project, cell-based, Clone20-Shn3RL, cherry-picked (AID 624133). It is filed as functional.
A short description of experiment [5]: P. falciparum Dd2 growth inhibitors, dose response, SYBR Green, cherry-picked samples (AID 1159567). The class given is functional, cell-based.
A short description of experiment [6]: HepG2 cell cytotoxicity, dose response, cytotoxicity control, cherry-picked samples (AID 1159577). It is filed as functional, cell-based.
Experiment [7] in a line: inhibitors of PGC1a acetylation in cells, dose response, cell-based, cherry-picked samples (AID 720514).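 Note: potency may reflect raised or lowered acetylation signal.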 The class given is functional.
The nature of experiment [8]: P. falciparum 3D7-ScDHODH growth inhibitors, dose response, SYBR Green, dry powder samples (AID 1159570).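 Note: parasite growth measured after 72 hours of compound exposure.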 The class given is functional, cell-based.
Experiment [9] is described as follows: P. falciparum ATP4 D1247Y mutant growth inhibitors, dose response, NITD609-resistant line, SYBR Green, dry powder (AID 1159571).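 Note: parasites synchronized at ring stage by sorbitol before testing.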 The class given is functional, cell-based.
Experiment [10] can be described thus: P. falciparum Dd2 growth inhibitors, dose response, SYBR Green, dry powder samples (AID 1159566).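 Note: potency for growth inhibition with lower SYBR green DNA signal.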 The class given is functional, cell-based.
A short description of experiment [11]: HepG2 cell cytotoxicity, dose response, cytotoxicity control, plate reader, dry powder samples (AID 1159569).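 Note: inhibitor potency with signal falling toward the positive control level.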 It is filed as functional, cell-based.
The next experiment has as its target T3, NADPH oxidase 1 (Homo sapiens, UniProt Q9Y5S8).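 Note: Cell-based assay with luminescence read-out, IC50 derived from inhibitor dose-response curves; intracellular ROS from endogenous NOX1 in intact HT29 colon cancer cells; potency of inhibitors that lower the ROS luminescence signal.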
T3 sequence (Q9Y5S8 whole entry): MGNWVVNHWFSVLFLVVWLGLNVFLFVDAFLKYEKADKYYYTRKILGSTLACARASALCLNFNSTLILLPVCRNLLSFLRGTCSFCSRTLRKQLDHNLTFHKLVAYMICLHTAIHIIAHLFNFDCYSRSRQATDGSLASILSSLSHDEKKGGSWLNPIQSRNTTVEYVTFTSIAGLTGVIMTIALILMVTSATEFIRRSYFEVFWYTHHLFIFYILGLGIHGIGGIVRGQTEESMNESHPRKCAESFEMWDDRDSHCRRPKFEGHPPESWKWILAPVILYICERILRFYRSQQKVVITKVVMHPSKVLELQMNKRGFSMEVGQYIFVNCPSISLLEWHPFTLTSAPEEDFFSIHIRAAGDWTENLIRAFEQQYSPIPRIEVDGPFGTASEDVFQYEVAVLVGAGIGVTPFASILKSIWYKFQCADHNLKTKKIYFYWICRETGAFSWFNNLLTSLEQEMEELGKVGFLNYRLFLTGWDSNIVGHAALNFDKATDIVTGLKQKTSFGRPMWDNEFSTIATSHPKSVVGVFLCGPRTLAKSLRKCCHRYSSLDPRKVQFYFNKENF
The class given is functional, cell-based.

A short description of experiment [12]: NIH:OVCAR-3 ovarian cancer cell cytotoxicity, dose response, PAX8 inhibitor project, plate reader, dry powder samples (AID 743044). The class given is functional, cell-based.
Experiment [13] in a line: cytotoxicity in OVCAR8 ovarian cancer cells, dose response, PAX8 project, cell-based, plate reader, dry powder samples (AID 743197). It is filed as functional. The settings on record: OVCAR-8.
The next experiment deals with Paired box protein Pax-8 (Homo sapiens, UniProt Q06710). The experiment in a line: inhibitors of PAX8-driven TPO luciferase reporter, dose response, RMG-I cells, cherry-pick (AID 687027).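 Note: luciferase reporter driven by Pax8 target thyroperoxidase promoter measured by SteadyGlo luminescence.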 It is filed as functional, cell-based.
Paired box protein Pax-8, sequence (Q06710 whole entry): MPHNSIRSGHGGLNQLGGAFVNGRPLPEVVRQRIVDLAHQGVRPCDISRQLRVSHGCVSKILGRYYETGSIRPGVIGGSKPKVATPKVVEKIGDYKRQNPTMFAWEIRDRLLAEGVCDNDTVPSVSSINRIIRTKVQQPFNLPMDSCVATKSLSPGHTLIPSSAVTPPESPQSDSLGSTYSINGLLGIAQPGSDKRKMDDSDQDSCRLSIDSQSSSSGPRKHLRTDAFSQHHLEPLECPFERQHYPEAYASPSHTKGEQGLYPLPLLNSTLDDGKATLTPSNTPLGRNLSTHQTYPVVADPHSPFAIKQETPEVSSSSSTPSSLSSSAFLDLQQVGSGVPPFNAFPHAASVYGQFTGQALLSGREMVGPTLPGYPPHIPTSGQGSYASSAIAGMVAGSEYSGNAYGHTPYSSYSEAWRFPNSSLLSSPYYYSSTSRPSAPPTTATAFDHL
Experiment [14] has as its target DNA dC->dU-editing enzyme APOBEC-3A (Homo sapiens, UniProt P31941). The experiment in a line: Dose Response confirmation of small molecule APOBEC3A DNA Deaminase Inhibitors via a fluorescence-based single-stranded DNA deaminase assay. [Related pubchem assays (depositor defined):AID493011, AID493024]. It is filed as functional.
Experiment [15] deals with DNA dC->dU-editing enzyme APOBEC-3G (Homo sapiens, UniProt Q9HC16). It is filed as functional.
DNA dC->dU-editing enzyme APOBEC-3G, sequence (Q9HC16 whole entry): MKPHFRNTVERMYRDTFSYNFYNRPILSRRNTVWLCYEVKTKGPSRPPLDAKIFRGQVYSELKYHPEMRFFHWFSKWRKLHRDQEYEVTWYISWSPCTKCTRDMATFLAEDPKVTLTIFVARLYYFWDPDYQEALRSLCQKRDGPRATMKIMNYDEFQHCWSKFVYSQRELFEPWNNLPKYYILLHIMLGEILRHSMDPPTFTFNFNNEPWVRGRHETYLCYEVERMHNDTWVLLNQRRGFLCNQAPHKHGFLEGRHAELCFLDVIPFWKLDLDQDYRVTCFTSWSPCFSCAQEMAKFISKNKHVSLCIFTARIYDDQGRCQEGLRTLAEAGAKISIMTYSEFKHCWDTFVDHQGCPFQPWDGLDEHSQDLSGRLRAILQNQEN
Another experiment has as its target T4, Caspase-6 (Homo sapiens, UniProt P55212).
T4 sequence (P55212 whole entry): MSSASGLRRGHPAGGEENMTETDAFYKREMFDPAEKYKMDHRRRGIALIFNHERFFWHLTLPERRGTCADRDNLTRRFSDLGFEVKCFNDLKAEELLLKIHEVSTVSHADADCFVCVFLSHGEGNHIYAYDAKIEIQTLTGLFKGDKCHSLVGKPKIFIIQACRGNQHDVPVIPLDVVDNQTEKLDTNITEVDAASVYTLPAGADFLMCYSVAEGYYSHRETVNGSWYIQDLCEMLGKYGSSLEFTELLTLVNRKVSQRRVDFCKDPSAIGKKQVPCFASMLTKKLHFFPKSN
The experiment in a line: human caspase-6 inhibitors, dose response, biochemical, VEID-R110 fluorescence, cherry-pick (AID 720632).

For experiment [16], the target named is T5, Carboxy-terminal domain RNA polymerase II polypeptide A small phosphatase 1 (Homo sapiens, UniProt Q9GZU7).
T5 sequence (Q9GZU7 whole entry): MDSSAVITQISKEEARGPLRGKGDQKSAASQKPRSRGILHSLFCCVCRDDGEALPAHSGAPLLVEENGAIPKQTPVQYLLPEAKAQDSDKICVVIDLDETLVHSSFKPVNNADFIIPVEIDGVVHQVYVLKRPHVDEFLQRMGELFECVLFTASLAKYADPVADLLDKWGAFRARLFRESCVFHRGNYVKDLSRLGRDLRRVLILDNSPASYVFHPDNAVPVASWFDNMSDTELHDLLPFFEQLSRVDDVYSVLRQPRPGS
As to the kind of experiment: inhibitors of CTDSP1, concentration-response testing, biochemical assay, absorbance-based, actives from ultra-high-throughput screening (AID 540297). The class given is functional.

The nature of experiment [17]: microbe, parasite or virus in culture. The class given is functional. The settings on record: Mycobacterium tuberculosis.
A further experiment can be described thus: cells. It is filed as functional.
The next experiment addresses Cytochrome P450 2C19 (Homo sapiens, UniProt P33261). The experiment in a line: qHTS Assay for Inhibitors and Substrates of Cytochrome P450 2C19. [Related pubchem assays: 410 ]. It is filed as ADME. The note with it: read-out: Potency.

Ion channel NompC, sequence (Q7T1G6 whole entry): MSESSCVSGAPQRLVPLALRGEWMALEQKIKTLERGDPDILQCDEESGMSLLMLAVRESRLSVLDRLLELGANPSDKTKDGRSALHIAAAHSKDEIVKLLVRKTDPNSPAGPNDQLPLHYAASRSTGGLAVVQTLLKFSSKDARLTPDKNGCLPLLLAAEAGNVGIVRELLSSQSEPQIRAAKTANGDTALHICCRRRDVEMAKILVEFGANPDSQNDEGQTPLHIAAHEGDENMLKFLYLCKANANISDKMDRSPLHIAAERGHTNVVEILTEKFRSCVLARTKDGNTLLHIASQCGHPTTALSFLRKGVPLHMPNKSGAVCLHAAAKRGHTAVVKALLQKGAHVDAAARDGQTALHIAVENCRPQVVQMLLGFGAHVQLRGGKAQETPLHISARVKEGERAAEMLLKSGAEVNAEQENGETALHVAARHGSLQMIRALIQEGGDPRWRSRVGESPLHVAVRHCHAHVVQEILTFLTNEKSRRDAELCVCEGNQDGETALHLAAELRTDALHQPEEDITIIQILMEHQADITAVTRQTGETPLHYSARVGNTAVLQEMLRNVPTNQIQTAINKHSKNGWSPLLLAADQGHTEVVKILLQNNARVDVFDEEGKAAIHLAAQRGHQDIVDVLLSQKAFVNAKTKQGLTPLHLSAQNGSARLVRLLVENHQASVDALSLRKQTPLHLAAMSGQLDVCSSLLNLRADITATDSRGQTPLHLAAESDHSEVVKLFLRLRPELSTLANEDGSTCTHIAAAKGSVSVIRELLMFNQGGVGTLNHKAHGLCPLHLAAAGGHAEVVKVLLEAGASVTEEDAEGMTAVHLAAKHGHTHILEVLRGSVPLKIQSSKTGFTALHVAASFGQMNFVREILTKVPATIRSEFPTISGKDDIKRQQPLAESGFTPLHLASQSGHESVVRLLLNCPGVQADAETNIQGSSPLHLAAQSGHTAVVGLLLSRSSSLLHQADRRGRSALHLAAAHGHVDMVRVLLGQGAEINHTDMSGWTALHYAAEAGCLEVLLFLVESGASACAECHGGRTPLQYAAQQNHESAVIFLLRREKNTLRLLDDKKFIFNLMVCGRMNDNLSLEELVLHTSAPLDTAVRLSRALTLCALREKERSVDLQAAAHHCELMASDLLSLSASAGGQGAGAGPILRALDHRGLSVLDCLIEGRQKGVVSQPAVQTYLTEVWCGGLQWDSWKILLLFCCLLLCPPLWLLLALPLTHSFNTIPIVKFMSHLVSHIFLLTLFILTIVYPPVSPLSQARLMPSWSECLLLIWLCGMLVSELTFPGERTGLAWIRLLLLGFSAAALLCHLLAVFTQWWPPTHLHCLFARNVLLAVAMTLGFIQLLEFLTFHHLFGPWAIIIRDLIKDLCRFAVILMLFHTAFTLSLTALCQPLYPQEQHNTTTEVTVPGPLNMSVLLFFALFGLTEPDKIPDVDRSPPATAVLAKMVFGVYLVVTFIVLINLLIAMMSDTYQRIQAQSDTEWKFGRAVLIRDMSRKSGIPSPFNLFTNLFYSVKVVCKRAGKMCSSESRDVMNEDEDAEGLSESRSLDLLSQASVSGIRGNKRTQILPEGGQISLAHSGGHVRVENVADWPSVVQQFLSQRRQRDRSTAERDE
DNA dC->dU-editing enzyme APOBEC-3A, sequence (P31941 whole entry): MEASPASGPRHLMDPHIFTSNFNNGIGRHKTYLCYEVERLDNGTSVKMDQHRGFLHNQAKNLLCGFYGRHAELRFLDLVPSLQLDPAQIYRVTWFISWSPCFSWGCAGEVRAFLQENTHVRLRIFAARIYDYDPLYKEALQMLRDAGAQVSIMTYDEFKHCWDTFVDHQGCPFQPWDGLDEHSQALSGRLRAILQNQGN
Cytochrome P450 2C19, sequence (P33261 whole entry): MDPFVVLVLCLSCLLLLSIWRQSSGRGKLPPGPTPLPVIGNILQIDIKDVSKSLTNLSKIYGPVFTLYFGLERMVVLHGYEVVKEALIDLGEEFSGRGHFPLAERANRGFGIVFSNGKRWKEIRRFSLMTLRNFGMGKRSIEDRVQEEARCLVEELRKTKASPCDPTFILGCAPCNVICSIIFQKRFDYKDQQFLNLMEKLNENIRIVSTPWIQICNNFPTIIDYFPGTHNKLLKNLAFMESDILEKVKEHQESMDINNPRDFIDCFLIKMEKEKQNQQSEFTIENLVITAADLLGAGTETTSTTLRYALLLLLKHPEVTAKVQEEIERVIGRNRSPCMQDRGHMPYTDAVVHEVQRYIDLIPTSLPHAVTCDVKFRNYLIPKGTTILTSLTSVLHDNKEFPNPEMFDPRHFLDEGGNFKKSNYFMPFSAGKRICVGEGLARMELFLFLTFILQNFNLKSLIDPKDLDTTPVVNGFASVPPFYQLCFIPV

For the compound `Nc1c(Cl)cc(-c2csc(N3CCCC3c3nc4cc(Cl)c(N5CCCCC5)cc4n3CCCO)n2)cc1Cl` (centres undefined), the CC50 in [1] is > 40 µM (active).
As to `CSc1ncc(Cl)c(C(=O)Nc2cccc3ccccc23)n1`, in experiment [1], the CC50 is > 40 µM (active).
As to `COc1ccc(-c2nc3ccc(C)cn3c2NCc2ccc3c(c2)OCO3)cc1`, the concentration for a half-maximal effect (EC50) in experiment [2] is > 100 µM (not active).
Regarding `CCOC(=O)C1CCN(C(=O)C(C)N(c2ccc(Oc3ccccc3)cc2)S(C)(=O)=O)CC1` (centres undefined), the AC50 in [3] was > 70 µM (inactive); in experiment [4], 9.34 µM (active). Further, the EC50 was > 29.9 µM (not active) on Ion channel NompC and 6.8 µM (active) on Mucolipin-3.
Regarding `C/C=C/c1ccc([C@H]2[C@H](CO)N(c3nc(CC)cs3)[C@H]2CNC(C)C)cc1`, the figures for the AC50 in experiment [5] and in experiment [6] were 0.829 µM (active) and 20 µM (active), respectively.
In the case of `CCN(CC(=O)NCc1ccc(Cl)cc1)C(=O)CSCC(=O)Nc1ccc(C)cc1`, in [7], the AC50 was 5.23 µM (active).
Consider `C[C@@H]1CN([C@@H](C)CO)C(=O)c2cccc(NC(=O)c3ccc(-c4nccs4)cc3)c2O[C@@H]1CN(C)C(=O)Nc1cccc2ccccc12`, for which the AC50 was 0.956 µM (active) in experiment [8]; 0.733 µM (active) in experiment [9]; 0.334 µM (active) in experiment [10]; 2.9 µM (active) in [5]; 53.3 µM (active) in experiment [11]; > 39 µM (inactive) in [6].
In the case of `CCNC(=S)N(Cc1cccs1)Cc1cc2cc(OCC)ccc2nc1O`, the EC50 on Ion channel NompC and on Mucolipin-3 was > 29.9 µM (not active) each time.
In the case of `Oc1ccc(-c2nc(-c3ccccc3)c(-c3ccccc3)[nH]2)cc1`, the concentration for half-maximal inhibition (IC50) on NADPH oxidase 1 is listed as > 17 µM (not active).
Consider `CC(=O)N1CCN(S(=O)(=O)c2cccc(C(=O)Nc3ccc4c(c3)OCO4)c2)CC1`, for which, in experiment [7], the AC50 was 25.1 µM (active).
On to `COc1ccccc1C#Cc1ccc2c(c1)O[C@@H](CN(C)Cc1cncnc1)[C@H](C)CN([C@H](C)CO)S2(=O)=O`, for which the AC50 is 32.6 µM (active) in experiment [12], 29 µM (active) in experiment [13] and 2.16 µM (active) on Paired box protein Pax-8.
On to `O=P(c1ccccc1)(c1ccccc1)c1cc(S(=O)(=O)O)ccc1O`, for which the IC50 in experiment [14] is 14.3 µM (active); in experiment [15] it was 45 µM (active); in [16] it was 9.24 µM (active). Also, the AC50 at Caspase-6 is 1.78 µM (active).
In the case of `CSc1ccc2c(c1)Nc1ccccc1S2`, the half-maximal inhibitory concentration (IC50) at NADPH oxidase 1 was 0.241 µM (active).
For `CCOC(=O)c1c(NC(=O)COc2ncnc3ccccc23)sc(C)c1C`, the EC50 in [2] is given as > 100 µM (not active).
With `C=C(NNc1c(Cl)c(Cl)nc(C(=O)O)c1Cl)c1ccc(O)cc1`, the IC50 on NADPH oxidase 1 is 4.45 µM (active).
On to `CCCCN1C(=O)C2(NNc3ccccc3O2)c2ccccc21` (centres undefined), for which the EC50 in [2] was < 0.195 µM (not active). Besides, in experiment [17], the CC50 was > 40 µM (active). Further, in the experiment “cells”, the half-maximal inhibitory concentration (IC50) was 36.5 µM (active).
Consider `COC(=O)NC(c1ccccc1)C(C#N)C(=O)OC` (centres undefined), for which the AC50 at Cytochrome P450 2C19 was 3.16 µM (inconclusive).

(Values after ChEMBL document CHEMBL1201862, “PubChem BioAssay data set” (2004).)
